For 14 compounds, IC50 and inhibition results are on record in patent publication US10899737B2, “Piperazine carbamates and methods of making and using same” (Lundbeck La Jolla Research Center, Inc., priority 2016, dated 2021).

SMILES strings stand for the structures.

Holding throughout (assay type): biochemical
The target of experiment [1] is T1, ABHD6 (Homo sapiens, UniProt Q9BV23).
T1 construct: Proteomes (human prefrontal cortex or cell membrane fractions); endogenous in cells; human prefrontal cortex
T1 sequence (Q9BV23 1-337): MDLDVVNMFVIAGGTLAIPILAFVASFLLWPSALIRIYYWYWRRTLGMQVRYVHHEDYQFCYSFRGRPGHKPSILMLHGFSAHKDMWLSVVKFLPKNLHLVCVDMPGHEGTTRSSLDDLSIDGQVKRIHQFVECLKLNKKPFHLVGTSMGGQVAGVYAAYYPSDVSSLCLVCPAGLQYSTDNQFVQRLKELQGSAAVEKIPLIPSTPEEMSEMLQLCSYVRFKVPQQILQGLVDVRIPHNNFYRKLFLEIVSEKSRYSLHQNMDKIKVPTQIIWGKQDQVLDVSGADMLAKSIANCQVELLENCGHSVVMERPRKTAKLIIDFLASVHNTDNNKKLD
Description: In vitro competitive activity-based protein profiling (human), ABHD6. Particulars: human PC3. The protocol: (§1) In Vitro Competitive Activity-Based Protein Profiling (Human).
(§2) Proteomes (human prefrontal cortex or cell membrane fractions) (50 μL, 1.0-2.0 mg/mL total protein concentration) were preincubated with varying concentrations of inhibitors at 37° C. After 30 min, FP-Rh or JW912 (1.0 μL, 50 μM in DMSO) was added and the mixture was incubated for another 30 min at room temperature. Reactions were quenched with SDS loading buffer (15 μL-4×) and run on SDS-PAGE. Following gel imaging, serine hydrolase activity was determined by measuring fluorescent intensity of gel bands corresponding to MAGL and ABHD6 using ImageJ 1.49 k software.

Experiment [2] addresses T2, ABHD6 (Mus musculus, UniProt Q8R2Y0).
T2 construct: Proteomes (mouse brain membrane fraction or cell lysates); from tissue; host or cells: mouse brain membrane fraction or cell lysates
T2 sequence (Q8R2Y0 1-336): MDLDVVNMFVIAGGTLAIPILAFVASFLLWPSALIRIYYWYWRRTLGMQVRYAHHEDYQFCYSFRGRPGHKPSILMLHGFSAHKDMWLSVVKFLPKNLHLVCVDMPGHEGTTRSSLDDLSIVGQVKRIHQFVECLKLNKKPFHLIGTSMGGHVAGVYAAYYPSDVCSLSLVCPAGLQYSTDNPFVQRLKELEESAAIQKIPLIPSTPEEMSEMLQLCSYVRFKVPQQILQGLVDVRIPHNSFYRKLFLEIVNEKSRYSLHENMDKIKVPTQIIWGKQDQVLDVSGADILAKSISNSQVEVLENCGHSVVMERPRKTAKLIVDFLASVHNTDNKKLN
As to the kind of experiment: In vitro competitive activity-based protein profiling (mouse), ABHD6. Particulars: 1 μM inhibitor, mouse brain membrane fraction or cell lysates; read-out: ABHD6 % inh. 1 μM (mouse). The protocol: (§3) In Vitro Competitive Activity-Based Protein Profiling (Mouse).
(§4) Proteomes (mouse brain membrane fraction or cell lysates) (50 μL, 1.0 mg/mL total protein concentration) were preincubated with varying concentrations of inhibitors at 37° C. After 30 min, FP-Rh (1.0 μL, 50 μM in DMSO) was added and the mixture was incubated for another 30 min at 37° C. Reactions were quenched with SDS loading buffer (50 μL-4×) and run on SDS-PAGE. Following gel imaging, serine hydrolase activity was determined by measuring fluorescent intensity of gel bands corresponding to MAGL and ABHD6 using ImageJ 1.49 k software. Data from this assay is shown in Table 1 (% inhibition at 1 μM).

Experiment [3] addresses T3, MAGL (Homo sapiens, UniProt Q99685).
T3 construct: Proteomes (human prefrontal cortex or cell membrane fractions); from tissue
T3 sequence (Q99685 1-303): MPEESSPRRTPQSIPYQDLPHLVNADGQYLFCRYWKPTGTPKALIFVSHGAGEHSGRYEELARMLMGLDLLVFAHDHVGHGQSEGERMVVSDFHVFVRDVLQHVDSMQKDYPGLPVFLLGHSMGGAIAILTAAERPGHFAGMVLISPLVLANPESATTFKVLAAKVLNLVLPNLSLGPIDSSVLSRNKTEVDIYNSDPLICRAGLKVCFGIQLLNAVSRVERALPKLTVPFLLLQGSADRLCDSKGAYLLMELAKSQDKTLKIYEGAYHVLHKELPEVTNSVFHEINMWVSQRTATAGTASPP
As to the kind of experiment: In vitro competitive activity-based protein profiling (human), MAGL. Particulars: for inhibition at 1 µM: 1 μM inhibitor, human proteome, 30 min preincubation at 37° C, read-out: MAGL % inh. 1 μM (human); for IC50: human PC3. The protocol: as §1, §2

In experiment [4] the target is T4, MAGL (Mus musculus, UniProt O35678).
T4 construct: Proteomes (mouse brain membrane fraction or cell lysates); from tissue; host or cells: mouse brain membrane fraction or cell lysates
T4 sequence (O35678 1-303): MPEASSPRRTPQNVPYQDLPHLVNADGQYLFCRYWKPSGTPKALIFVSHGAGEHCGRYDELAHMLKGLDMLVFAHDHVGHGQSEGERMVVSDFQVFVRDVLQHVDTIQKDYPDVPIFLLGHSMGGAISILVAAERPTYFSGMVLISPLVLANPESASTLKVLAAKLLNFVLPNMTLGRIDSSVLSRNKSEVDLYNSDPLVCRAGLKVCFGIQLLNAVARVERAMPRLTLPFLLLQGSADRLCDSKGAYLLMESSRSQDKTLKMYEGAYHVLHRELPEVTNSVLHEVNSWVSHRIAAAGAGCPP
Description: In vitro competitive activity-based protein profiling (mouse), MAGL. Particulars: 1 μM inhibitor, mouse brain membrane fraction or cell lysates; read-out: MAGL % inh. 1 μM (mouse). The protocol: as §3, §4

As a reminder, the IC50 is the concentration that inhibits the measured activity by half. Low values mean higher potency, high ones lower potency. With `O=C(O)Cn1ccc(-c2ccccc2CN2CCN(C(=O)OC(C(F)(F)F)C(F)(F)F)CC2)n1` [Example 11, 2-(3-(2-((4-(((1,1,1,3,3,3-Hexafluoropropan-2-yl)oxy)carbonyl)piperazin-1-yl)methyl)phenyl)-1H-pyrazol-1-yl)acetic Acid], the 50% inhibitory concentration (IC50) at ABHD6 [1] lay within 1 to 10 µM; at MAGL [3], 0.1 to 1 µM. In addition, the inhibition at 1 µM was 0 to 25% at ABHD6 [2], no less than 75% on MAGL [3] and no less than 75% at MAGL [4].
On to `C#Cc1ccc(CN2CCN(C(=O)OC(C(F)(F)F)C(F)(F)F)CC2)c(N2CCC(C(=O)O)CC2)c1` [Example 82, 1-(5-ethynyl-2-((4-(((1,1,1,3,3,3-hexafluoropropan-2-yl)oxy)carbonyl)piperazin-1-yl)methyl)phenyl)piperidine-4-carboxylic acid], for which the values for the inhibition at 1 µM on ABHD6 [2], on MAGL [3] and on MAGL [4] were 50 to 75%, no less than 75% and no less than 75%, respectively.
For the compound `O=C(O)C1CCN(c2c(CN3CCN(C(=O)OC(C(F)(F)F)C(F)(F)F)CC3)cccc2C(F)(F)F)CC1` [Example 74, 1-(2-((4-(((1,1,1,3,3,3-hexafluoropropan-2-yl)oxy)carbonyl)piperazin-1-yl)methyl)-6-(trifluoromethyl)phenyl)piperidine-4-carboxylic acid], the inhibition at 1 µM at ABHD6 [2], on MAGL [3] and at MAGL [4] was no less than 75% in each case.
In the case of `Cc1cc(N2CCC(C(=O)O)CC2)c(CN2CCN(C(=O)OC(C(F)(F)F)C(F)(F)F)CC2)cc1F` [Example 76, 1-(4-fluoro-2-((4-(((1,1,1,3,3,3-hexafluoropropan-2-yl)oxy)carbonyl)piperazin-1-yl)methyl)-5-methylphenyl)piperidine-4-carboxylic acid], the IC50 on ABHD6 [1] is 1 to 10 µM; at MAGL [3], no more than 0.1 µM.
With `O=C(O)[C@@H]1CCCN(c2cc(CN3CCN(C(=O)OC(C(F)(F)F)C(F)(F)F)CC3)cc(C(F)(F)F)c2)C1` [Example 66, (R)-1-(3-((4-(((1,1,1,3,3,3-hexafluoropropan-2-yl)oxy)carbonyl)piperazin-1-yl)methyl)-5-(trifluoromethyl)phenyl)piperidine-3-carboxylic acid], the IC50 at ABHD6 [1] and at MAGL [3] was no more than 0.1 µM each time. Moreover, the inhibition at 1 µM at ABHD6 [2], at MAGL [3] and at MAGL [4] was no less than 75% in each case.
Regarding `O=C(O)C1CCCCN1c1cc(C(F)(F)F)ccc1CN1CCN(C(=O)OC(C(F)(F)F)C(F)(F)F)CC1` (stereo not shown) [Example 65, 1-(2-((4-(((1,1,1,3,3,3-hexafluoropropan-2-yl)oxy)carbonyl)piperazin-1-yl)methyl)-5-(trifluoromethyl)phenyl)piperidine-2-carboxylic acid], the inhibition at 1 µM is 0 to 25% on ABHD6 [2], 50 to 75% at MAGL [3] and no less than 75% on MAGL [4].
Regarding `O=C(O)C1CCN(c2c(Cl)cccc2CN2CCN(C(=O)OC(C(F)(F)F)C(F)(F)F)CC2)CC1` [Example 75, 1-(2-chloro-6-((4-(((1,1,1,3,3,3-hexafluoropropan-2-yl)oxy)carbonyl)piperazin-1-yl)methyl)phenyl)piperidine-4-carboxylic acid], the results for the inhibition at 1 µM at ABHD6 [2], on MAGL [3] and on MAGL [4] were 50 to 75%, no less than 75% and no less than 75%, respectively.
Take `O=C(O)C1CCN(c2ccc(CN3CCN(C(=O)OC(C(F)(F)F)C(F)(F)F)CC3)cc2)CC1` [Example 77, 1-(4-((4-(((1,1,1,3,3,3-hexafluoropropan-2-yl)oxy)carbonyl)piperazin-1-yl)methyl)phenyl)piperidine-4-carboxylic acid]: the inhibition at 1 µM on ABHD6 [2] and on MAGL [4] was no less than 75% each time.
Take `CN1CCN(c2cc(C(F)(F)F)ccc2CN2CCN(C(=O)OC(C(F)(F)F)C(F)(F)F)CC2)CC1C(=O)O` (stereo not shown) [Example 58, 4-(2-((4-(((1,1,1,3,3,3-hexafluoropropan-2-yl)oxy)carbonyl)piperazin-1-yl)methyl)-5-(trifluoromethyl)phenyl)-1-methylpiperazine-2-carboxylic acid]: the inhibition at 1 µM was 0 to 25% at ABHD6 [2], no less than 75% on MAGL [3] and no less than 75% on MAGL [4].
As to `N#Cc1ccc(CN2CCN(C(=O)OC(C(F)(F)F)C(F)(F)F)CC2)c(-c2ccn(CC(=O)O)n2)c1` [Example 50, 2-(3-(5-cyano-2-((4-(((1,1,1,3,3,3-hexafluoropropan-2-yl)oxy)carbonyl)piperazin-1-yl)methyl)phenyl)-1H-pyrazol-1-yl)acetic acid], the inhibition at 1 µM at ABHD6 [2], on MAGL [3] and at MAGL [4] was no less than 75% in each case.
For `N#Cc1ccc(CN2CCN(C(=O)OC(C(F)(F)F)C(F)(F)F)CC2)c(C2(C(=O)O)CCCC2)c1` [Example 30, 1-(5-Cyano-2-((4-(((1,1,1,3,3,3-hexafluoropropan-2-yl)oxy)carbonyl)piperazin-1-yl)methyl)phenyl)cyclopentane-1-carboxylic Acid], the inhibition at 1 µM was 0 to 25% at ABHD6 [2] and no less than 75% at MAGL [4].
Turning to `O=C(O)C1CCN(c2cc(Cl)c(F)cc2CN2CCN(C(=O)OC(C(F)(F)F)C(F)(F)F)CC2)CC1` [Example 60, 1-(5-chloro-4-fluoro-2-((4-(((1,1,1,3,3,3-hexafluoropropan-2-yl)oxy)carbonyl)piperazin1-yl)methyl)phenyl)piperidine-4-carboxylic acid], the inhibition at 1 µM on ABHD6 [2], at MAGL [3] and on MAGL [4] was no less than 75% in each case.
Turning to `O=C(O)C1CN(c2cc(C(F)(F)F)ccc2CN2CCN(C(=O)OC(C(F)(F)F)C(F)(F)F)CC2)C1` [Example 79, 1-(2-((4-(((1,1,1,3,3,3-hexafluoropropan-2-yl)oxy)carbonyl)piperazin-1-yl)methyl)-5-(trifluoromethyl)phenyl)azetidine-3-carboxylic acid], the inhibition at 1 µM on ABHD6 [2], at MAGL [3] and at MAGL [4] was no less than 75% each time.
Regarding `O=C(O)CN1CCC(C2CCN(c3cc(Cl)ccc3CN3CCN(C(=O)OC(C(F)(F)F)C(F)(F)F)CC3)CC2)C1` (stereo not shown) [Example 33, 2-(3-(1-(5-Chloro-2-((4-(((1,1,1,3,3,3-hexafluoropropan-2-yl)oxy)carbonyl)piperazin-1-yl)methyl)phenyl)piperidin-4-yl)pyrrolidin-1-yl)acetic Acid], the figures for the inhibition at 1 µM at ABHD6 [2], at MAGL [3] and at MAGL [4] were 50 to 75%, no less than 75% and no less than 75%, respectively.
